Targets include Cytochrome P450 2D6 (Homo sapiens, UniProt P10635); Cytochrome P450 2C9 (Homo sapiens, UniProt P11712); Cytochrome P450 3A4 (Homo sapiens, UniProt P08684).
In another experiment the target is T1, Cytochrome P450 1A2 (Homo sapiens, UniProt P05177).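 Also: PubChem cytochrome P450 panel assay, CYP1A2 panel member.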
T1 sequence (P05177 whole entry): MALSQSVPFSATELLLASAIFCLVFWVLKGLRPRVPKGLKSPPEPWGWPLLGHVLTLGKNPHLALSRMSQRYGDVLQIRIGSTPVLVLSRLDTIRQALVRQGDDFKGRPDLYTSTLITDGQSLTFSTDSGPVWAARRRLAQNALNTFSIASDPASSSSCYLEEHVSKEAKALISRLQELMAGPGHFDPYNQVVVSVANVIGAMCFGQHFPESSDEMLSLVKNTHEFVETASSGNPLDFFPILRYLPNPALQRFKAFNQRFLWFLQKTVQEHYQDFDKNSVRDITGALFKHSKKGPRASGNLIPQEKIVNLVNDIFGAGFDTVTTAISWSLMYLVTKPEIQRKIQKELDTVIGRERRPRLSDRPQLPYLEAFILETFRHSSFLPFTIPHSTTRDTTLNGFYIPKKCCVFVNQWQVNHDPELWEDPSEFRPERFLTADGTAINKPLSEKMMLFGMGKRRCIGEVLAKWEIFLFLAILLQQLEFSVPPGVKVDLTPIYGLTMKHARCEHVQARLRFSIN

Another experiment concerns Streptococcus. As to the kind of experiment: GAS UMAA2166 growth inhibition – luminescence, BacTiterGlo, counter-screen for streptokinase expression inhibitor project, dose response (AID 1915).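 Also: potency for reduction of bacterial viability or growth.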 The experiment is classed as functional, organism-based.
Another experiment has as its target T2, Streptokinase A (Streptococcus pyogenes serotype M1, UniProt P10520).
T2 sequence (P10520 whole entry): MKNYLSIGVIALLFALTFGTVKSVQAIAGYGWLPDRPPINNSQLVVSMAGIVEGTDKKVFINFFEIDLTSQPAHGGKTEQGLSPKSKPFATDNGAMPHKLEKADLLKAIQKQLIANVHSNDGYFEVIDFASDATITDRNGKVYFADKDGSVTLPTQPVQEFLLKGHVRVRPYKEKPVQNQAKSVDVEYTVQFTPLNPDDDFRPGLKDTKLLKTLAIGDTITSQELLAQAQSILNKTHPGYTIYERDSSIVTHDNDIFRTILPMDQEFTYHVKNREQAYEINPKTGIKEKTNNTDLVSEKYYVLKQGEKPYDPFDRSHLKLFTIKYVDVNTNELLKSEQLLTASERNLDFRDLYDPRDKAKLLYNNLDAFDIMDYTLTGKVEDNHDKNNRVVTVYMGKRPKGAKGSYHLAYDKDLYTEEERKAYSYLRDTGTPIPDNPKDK
The experiment can be described thus: viability-normalized secreted streptokinase activity reduction – plasminogen activation absorbance, OD405, dose response (AID 1914).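 Also: secreted streptokinase activity via plasminogen activation per viability signal from cell pellet.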 The experiment is classed as functional, Streptococcus pyogenes M1 GAS.

The subject of experiment [1] is Streptococcus sp. 'group A'. As to the kind of experiment: Streptococcus pyogenes SK(-)GAS viability under kanamycin – luminescence, BacTiterGlo, confirmation, counter-screen for streptokinase expression inhibitor project, dose response (AID 1900). In kind it is functional, organism-based.
The target of another experiment is Cytochrome P450 2C19 (Homo sapiens, UniProt P33261). The experiment can be described thus: Cytochrome panel assay with activity outcomes. Panel member name: p450-cyp2c19 Compounds with AC50 equal or less than 10 uM are considered active. The experiment is classed as functional. Particulars: read-out: AC50.
Chain of Cytochrome P450 2C19 (P33261 whole entry): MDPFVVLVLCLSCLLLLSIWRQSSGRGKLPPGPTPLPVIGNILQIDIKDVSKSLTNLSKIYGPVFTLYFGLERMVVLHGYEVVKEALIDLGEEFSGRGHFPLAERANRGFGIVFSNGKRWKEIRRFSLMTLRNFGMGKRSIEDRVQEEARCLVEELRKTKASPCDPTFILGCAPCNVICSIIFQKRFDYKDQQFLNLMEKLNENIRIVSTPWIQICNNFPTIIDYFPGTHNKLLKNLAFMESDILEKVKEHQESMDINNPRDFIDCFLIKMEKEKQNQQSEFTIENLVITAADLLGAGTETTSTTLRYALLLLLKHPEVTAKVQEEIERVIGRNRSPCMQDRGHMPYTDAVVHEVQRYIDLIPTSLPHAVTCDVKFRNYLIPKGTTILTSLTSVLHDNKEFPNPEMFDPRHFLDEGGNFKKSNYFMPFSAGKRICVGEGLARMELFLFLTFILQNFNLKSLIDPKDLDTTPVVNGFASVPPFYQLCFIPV
Experiment [2] in a line: Luminescence Cell-Based Dose Retest to Confirm Inhibitors of Cancer Stem Cells. [Related pubchem assays (depositor defined):AID2717, AID2721]. The experiment is classed as functional. Particulars: Homo sapiens.
The nature of experiment [3]: Trypanosoma cruzi growth suppression in host cells – NIH3T3 host cells, beta-gal luminescence, confirmation (AID 2044).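 Also: intracellular parasites grown in NIH/3T3 mouse fibroblasts as host cells; luminescent beta-galactosidase reporter signal from transgenic T. cruzi replicating inside host cells; inhibitors lower the luminescence signal.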 In kind it is functional, cell-based.
A short description of experiment [4]: NIH3T3 cell viability loss – ATP luminescence, mouse fibroblasts, counter-screen, dose response (AID 2010).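 Also: cells exposed to compound for about 90 hours before reading.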 The experiment is classed as functional, cell-based.

Activity calls are given as the source filed them. Some results are limits rather than exact numbers.

Chain of Cytochrome P450 2C9 (P11712 whole entry): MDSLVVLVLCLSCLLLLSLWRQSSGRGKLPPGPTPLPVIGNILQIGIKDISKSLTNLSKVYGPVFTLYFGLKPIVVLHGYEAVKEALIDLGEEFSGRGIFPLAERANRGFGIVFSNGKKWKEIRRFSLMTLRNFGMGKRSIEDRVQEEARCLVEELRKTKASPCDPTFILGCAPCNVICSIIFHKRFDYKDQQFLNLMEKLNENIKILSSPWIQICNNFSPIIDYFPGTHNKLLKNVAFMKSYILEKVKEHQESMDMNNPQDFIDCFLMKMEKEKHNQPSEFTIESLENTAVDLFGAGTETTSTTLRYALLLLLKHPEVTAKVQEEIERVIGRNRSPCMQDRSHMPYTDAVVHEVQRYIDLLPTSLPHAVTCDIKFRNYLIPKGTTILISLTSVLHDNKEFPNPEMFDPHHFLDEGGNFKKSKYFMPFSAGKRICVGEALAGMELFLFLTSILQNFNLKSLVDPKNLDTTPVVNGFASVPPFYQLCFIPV
Chain of Cytochrome P450 2D6 (P10635 whole entry): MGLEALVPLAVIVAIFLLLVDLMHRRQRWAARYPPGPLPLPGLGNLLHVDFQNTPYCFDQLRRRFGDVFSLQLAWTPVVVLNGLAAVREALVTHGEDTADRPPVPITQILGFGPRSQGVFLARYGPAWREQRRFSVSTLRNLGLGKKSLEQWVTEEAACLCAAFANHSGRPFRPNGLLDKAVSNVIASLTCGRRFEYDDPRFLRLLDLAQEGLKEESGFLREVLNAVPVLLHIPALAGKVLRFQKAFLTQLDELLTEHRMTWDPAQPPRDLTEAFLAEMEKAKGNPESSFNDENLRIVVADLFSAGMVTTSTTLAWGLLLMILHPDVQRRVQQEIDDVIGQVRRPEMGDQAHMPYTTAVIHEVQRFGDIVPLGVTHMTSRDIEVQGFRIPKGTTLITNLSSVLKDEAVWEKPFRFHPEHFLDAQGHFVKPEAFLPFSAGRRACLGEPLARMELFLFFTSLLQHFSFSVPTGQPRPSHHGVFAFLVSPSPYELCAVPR
Chain of Cytochrome P450 3A4 (P08684 whole entry): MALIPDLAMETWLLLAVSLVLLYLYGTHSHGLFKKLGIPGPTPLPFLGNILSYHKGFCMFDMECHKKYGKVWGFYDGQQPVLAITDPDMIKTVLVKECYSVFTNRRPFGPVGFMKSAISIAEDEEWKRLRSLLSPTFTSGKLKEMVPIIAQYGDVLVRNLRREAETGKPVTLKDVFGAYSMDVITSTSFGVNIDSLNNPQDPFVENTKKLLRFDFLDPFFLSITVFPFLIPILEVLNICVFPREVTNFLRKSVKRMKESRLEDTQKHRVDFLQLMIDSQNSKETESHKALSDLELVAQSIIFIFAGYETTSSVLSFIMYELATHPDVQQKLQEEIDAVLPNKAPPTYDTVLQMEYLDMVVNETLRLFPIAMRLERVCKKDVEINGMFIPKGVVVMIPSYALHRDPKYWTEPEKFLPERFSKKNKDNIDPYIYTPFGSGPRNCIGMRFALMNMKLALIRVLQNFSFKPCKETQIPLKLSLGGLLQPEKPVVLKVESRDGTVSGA

Consider `CCCN(CCC)CCCNC(=O)c1ccc2c(c1)N(CC)C(=O)c1ccccc1[S+]2[O-]` (stereo not given), for which the results for the AC50 on Cytochrome P450 1A2 and on Cytochrome P450 2D6 were 0.01 µM (inconclusive) and 22.4 µM (inconclusive), respectively.

For `NC(=O)OCC(COC(N)=O)c1ccccc1` [FELBAMATE], the AC50 on Cytochrome P450 1A2 is 39.8 µM (inconclusive).

Consider `O=C(O)/C=C\C=C/c1ccc2c(c1)OCO2`, for which the AC50 at Cytochrome P450 1A2 was 1.58 µM (inconclusive).

For `Nc1c(Cl)cc(-c2csc(N3CCCC3c3nc4cc(Cl)c(Cl)cc4n3CCOCCO)n2)cc1Cl` (stereo not given), the EC50 (with Streptococcus; at Streptokinase A; in experiment [1]) was > 150 µM (not active) in each case.

Regarding `Cc1cccc(NCCNc2cccc(C)c2)c1`, the concentration at half-maximal activity (AC50) on Cytochrome P450 2C9 is 17.8 µM (inconclusive); at Cytochrome P450 2D6 it was 12.6 µM (inconclusive).

As for `O=C(c1nc2ccc(Cl)cn2c1CN1CCC(CO)CC1)N1CCc2ccccc2C1`, the EC50 (in the experiment on Streptococcus; on Streptokinase A; in experiment [1]) was > 150 µM (not active) each time.

For `O=c1[nH]c2cc(Cl)ccc2c(O)c1-c1cccc(Oc2ccccc2)c1`, the AC50 on Cytochrome P450 1A2 is 2.51 µM (inconclusive); at Cytochrome P450 2C19, 31.6 µM (inconclusive).

As to `Cc1cc(C(C)(C)C)ccc1OCCCCN1CCCC1`, the AC50 in experiment [2] was 2.57 µM (active).

With `O=P(c1ccccc1)(c1ccccc1)N1CC2(CC2)CC(O)(c2ccccc2)C1` (stereo not given), the AC50 at Cytochrome P450 2C9 is 39.8 µM (inconclusive); on Cytochrome P450 2D6 it was 20 µM (inconclusive).

On to `COC(=O)C1=C(C)N=C2SC(C)C(=O)N2C1/C=C/c1ccccc1` (stereo not given), for which the AC50 at Cytochrome P450 2D6 was 28.2 µM (inconclusive).

In the case of `CN(C)CCCOC(=O)c1ccc(Cl)cc1Cl`, the EC50 in experiment [3] is 2.56 µM (active); in experiment [4] it was > 60 µM (not active).

Consider `CCCOc1c(Cl)cc(C(=O)Nc2ccc3c(c2)OCO3)cc1OCC`, for which the AC50 in experiment [2] is 2.39 µM (active).

Take `COc1ccc(/C=C(/C#N)C(=O)Nc2cc(C)ccc2C)cc1C(=O)O`: the AC50 at Cytochrome P450 2D6 is 25.1 µM (inconclusive).

For `Cc1ccccc1C(=O)N=c1nc(S)ss1`, the results for the EC50 (with Streptococcus; on Streptokinase A; in experiment [1]) were 36.5 µM (active), 2.04 µM (active) and 2.81 µM (active), respectively.

For the compound `CCCN1CC[C@@H]2c3cc(O)ccc3CC[C@H]21`, the AC50 on Cytochrome P450 2D6 was 31.6 µM (inconclusive).

For `CCSc1nnc(C(N)Cc2ccccc2)o1` (stereo not given), the values for the AC50 at Cytochrome P450 2C19, on Cytochrome P450 2C9 and at Cytochrome P450 2D6 were 28.2 µM (inconclusive), 2.24 µM (inconclusive) and 17.8 µM (inconclusive), respectively.

With `COc1cccc2[nH]c3c(N4CC(C)CC(C)C4)ncnc3c12` (stereo not given), the EC50 was 1.39 µM (active) in experiment [3] and > 60 µM (not active) in experiment [4]. Besides, the AC50 at Cytochrome P450 3A4 was 0.891 µM (inconclusive).

With `C=CCOc1c(Cl)cc(CNCCCN2CCOCC2)cc1OC`, the EC50 in experiment [3] is 0.125 µM (active); in experiment [4] it was 20.2 µM (active).

With `CCCC[N+]1(C)[C@@H]2CC(OC(=O)[C@@H](CO)c3ccccc3)C[C@H]1[C@H]1O[C@H]12` (stereo not given in full), the half-maximal activity concentration (AC50) on Cytochrome P450 2D6 was 7.94 µM (inconclusive).

Consider `CN1CCN(c2ncc3nc(-c4ccccc4)c(=O)n(C)c3n2)CC1`, for which the concentration at half-maximal activity (AC50) at Cytochrome P450 1A2 is 15.8 µM (inconclusive).

In the case of `COc1cc2c(cc1NC(=O)Nc1ccc(F)cc1)oc1ccccc12`, the values for the EC50 in [3] and in experiment [4] were 1.94 µM (active) and > 30 µM (not active), respectively.

In the case of `Cc1cc(C)c(S(=O)(=O)c2ccc(Cl)cc2C)c(Cl)n1`, the values for the EC50 in experiment [3] and in [4] were 0.336 µM (active) and 35.9 µM (active), respectively.

For the compound `COc1ccc2nc(O)c(CN(CCO)C(=O)c3cccs3)cc2c1`, the AC50 was 20 µM (inconclusive) on Cytochrome P450 1A2, 31.6 µM (inconclusive) on Cytochrome P450 2C19 and 15.8 µM (inconclusive) at Cytochrome P450 3A4.

For `Cc1ccc(O)c(C(=O)c2cc(C#N)c(=O)n(-c3c(C)n(C)n(-c4ccccc4)c3=O)c2)c1`, at Cytochrome P450 2D6, the AC50 is 10 µM (inconclusive).

`COc1cccc(C(=O)Nc2nnc(-c3cccs3)o2)c1`: the EC50 is 18.9 µM (active) with Streptococcus, > 150 µM (not active) on Streptokinase A and 9.25 µM (active) in experiment [1].

As to `Cc1nn(Cc2ccc(Cl)cc2Cl)c(C)c1NC(=O)c1sc2ccccc2c1Cl`, the AC50 at Cytochrome P450 1A2 was 25.1 µM (inconclusive); at Cytochrome P450 2C19, 22.4 µM (inconclusive); on Cytochrome P450 2C9, 1.78 µM (inconclusive).

Turning to `COc1ccc(NC(=O)N2CCC3(CC2)CCN(S(=O)(=O)c2ccccc2)CC3)cc1`, the AC50 at Cytochrome P450 1A2 was 31.6 µM (inconclusive); on Cytochrome P450 2D6, 25.1 µM (inconclusive); on Cytochrome P450 3A4 it was 20 µM (inconclusive).

As to `CSc1cccc(NC(=S)N(Cc2ccccc2)Cc2cccnc2)c1`, the concentration for a half-maximal effect (EC50) in experiment [3] is 0.653 µM (active); in experiment [4], > 60 µM (not active).

`CCN(CC)CCN(C(=O)CCOc1ccccc1)c1nc2c(F)cc(F)cc2s1`: the values for the 50% effective concentration (EC50) in [3] and in [4] were 1.02 µM (active) and > 60 µM (inconclusive), respectively.

In the case of `COc1ccc2[nH]c(C(O)(Cc3cccnc3)Cc3cccnc3)cc2c1`, the EC50 is 2.42 µM (active) in [3] and > 60 µM (inconclusive) in experiment [4].

With `Cc1sc2ncnc(SCC(=O)N3CCCC(C(F)(F)F)C3)c2c1C` (stereo not given), the EC50 (with Streptococcus; at Streptokinase A; in experiment [1]) was > 150 µM (not active) each time.

With `Fc1cc(F)c(C2SCCN2C(=S)Nc2cccc(C(F)(F)F)c2)c(F)c1` (stereo not given), the EC50 in the experiment on Streptococcus is > 150 µM (not active); on Streptokinase A it was 11.1 µM (active); in experiment [1], 6.86 µM (active).

With `Cc1nnc(NC(=O)c2ccc(S(=O)(=O)N3CC(C)CC(C)C3)cc2)o1` (stereo not given), the EC50 in the experiment with Streptococcus was 21 µM (active); at Streptokinase A it was > 150 µM (not active); in [1], 7.28 µM (active).

Regarding `Oc1c(Cl)cc(CN(Cc2cc(Cl)c(O)c(Cl)c2)C2CCCCC2)cc1Cl`, the AC50 was 3.98 µM (inconclusive) on Cytochrome P450 2C9 and 5.01 µM (inconclusive) at Cytochrome P450 2D6.

As to `O=C(CC1NCCc2ccccc21)Nc1ccc(Oc2ccccc2)cc1` (stereo not given), the concentration at half-maximal activity (AC50) in experiment [2] is 7.35 µM (active).

For `O=C(Nc1cccc(F)c1)N1CC[C@@]2(CCCN(S(=O)(=O)c3ccccc3)C2)C1`, the AC50 on Cytochrome P450 1A2 was 15.8 µM (inconclusive); at Cytochrome P450 2D6, 39.8 µM (inconclusive).

As to `O=C(NCCN1CCCC1)C1(S(=O)(=O)c2ccc(Cl)cc2)CC1`, the half-maximal activity concentration (AC50) on Cytochrome P450 2C19 was 25.1 µM (inconclusive); on Cytochrome P450 2D6 it was 12.6 µM (inconclusive); on Cytochrome P450 3A4, 39.8 µM (inconclusive).

As for `C[C@@H](CN1CCC(Cc2ccccc2)CC1)[C@@H](O)c1ccc(O)cc1`, the AC50 on Cytochrome P450 1A2 was 39.8 µM (inconclusive).

With `COc1ccccc1C1(CC(=O)Nc2nccs2)CCOC(C(C)C)C1` (stereo not given), the concentration at half-maximal activity (AC50) at Cytochrome P450 1A2 is 5.62 µM (inconclusive); on Cytochrome P450 2D6, 22.4 µM (inconclusive).

For `c1cnc(N2CCC3(CCNCC3)CC2)nc1`, the AC50 at Cytochrome P450 2D6 was 10 µM (inconclusive); at Cytochrome P450 3A4, 20 µM (inconclusive).

For the compound `CCN(CC)C(=O)CSc1nnc(-c2ccncc2)n1N`, the figures for the AC50 on Cytochrome P450 2C9 and at Cytochrome P450 2D6 were 31.6 µM (inconclusive) and 17.8 µM (inconclusive), respectively.

For `c1ccc(COc2cccc(CNCc3cccnc3)c2)cc1`, the EC50 was 8.34 µM (active) in [3] and > 30 µM (not active) in [4].

For the origin of these results see ChEMBL document CHEMBL1201862, “PubChem BioAssay data set” (2004).
